What all share (type): in vivo
For series [1], the system named is Male Slc-ddy mice. The series can be described thus: Anti-strychnine effect (time from tonic convulsions to death after subcutaneous strychnine nitrate). Particulars: for ED50: Mus musculus, po, 0.5 h, read-out: ED₅₀ values for the anti-strychnine effect; for anti-strychnine effect compared with eperisone hydrochloride / Anti-strychnine effect Effect: 100 mg/10 ml/kg oral; for Anti-strychnine effect Effect: 30 min, compared with eperisone hydrochloride. Here is the method: Strychnine is known to enhance reflex stimulation, among others, of spinal cord to induce convulsions. If this effect of strychnine can be suppressed by administration of any of the above-mentioned compounds, this compound is expected to have a central muscle relaxation effect.
Male Slc-ddy mice of 25 - 30 g (5 weeks old) were used in groups of 7 - 10.
The test compounds (100 mg/10 ml/kg) were orally administered to the mice, and after 30 min, 1.5 mg/10 ml/kg of strychnine nitrate was administered subcutaneously, and the time was measured from the occurence of tonic convulsions to the death of the animals. Cases in which this time was extended to 6 min or more were judged as corresponding to an anti-strychnine effect, and with the number of such cases as index, comparison was made with the reference compound (eperisone hydrochloride). […] The ED₅₀ values (95% confidence limit) for the anti-strychnine effect were determined by the Litchfield-Wilcoxon method and are shown in Table 3.

Series [2] deals with Male Slc-ddy mice. Briefly: Anti-nicotinic effect (survival after intravenous nicotine bitartrate). Particulars: for anti-nicotinic effect compared with eperisone hydrochloride / Anti-nicotinic effect Effect: 100 mg/10 ml/kg oral; for Anti-nicotinic effect Effect: 30 min, compared with eperisone hydrochloride; for ED50: Mus musculus, 0.5 h, oral, nicotine bitartrate 3 mg/10 ml/kg i.v. after 30 min, Litchfield-Wilcoxon, 95 % confidence limit in brackets, read-out: ED₅₀ values for the anti-nicotinic effect.
Method: Experimental Method of Male Slc-ddy mice/30 - 35 g (6 weeks old) were used as test animals in groups of 7 - 10. The test compounds (100 mg/10 ml/kg) were orally administered to the mice, and after 30 min, nicotine bitartrate (3 mg/10 ml/kg) was administered intravenously, and the number of animals killed due to tonic convulsion was counted. The surviving animals were judged as having an anti-nicotinic effect, and with the number thereof as index the comparison concerning the anti-nicotinic effect was made with the reference compound (eperisone hydrochloride).

A short description of the next series: Acute toxicity test. Particulars: mouse, in vivo, po, mice, observation for 7 days, Litchfield-Wilcoxon, 95% confidence limit in brackets, read-out: LD₅₀ values (50% of lethal dose). Here is the method: (§1) Male ddy mice of 20-30 g were used as test animals in groups of 5-10. The test compounds were dissolved or suspended in 0.5 % Tween 80 aqueous solution, and orally administered to the mice. Observation was made for 7 days after administration. The LD₅₀ values (50% of lethal dose) (95% confidence limit) were determined by the Litchfield-Wilconxon method, and are shown in Table 4.

Series [3] has as its system Male Slc-ddy mice. Briefly: Inhibitory effect on the motor coordination (rotating rod test). Particulars: for Inhibitory effect on motor coordination Effect: 300 - 600 mg/10 ml/kg oral, 30 min, compared with eperisone hydrochloride; for ED50: Mus musculus, 0.5 h, read-out: ED₅₀ values for the inhibitory effect on the motor coordination.
Method: Male Slc-ddy mice of 20 - 25 g (5 weeks old) were used in groups of 7 - 10. The test compounds were used dissolved or suspended in 0.5 % CMC or 0.5 % Tween 80 solution. Each test compound (300 - 600 mg/10 ml/kg) was orally administered to the mice, and after 30 min the mice were put on a 3-cm diameter rod rotating at a speed of 10 min⁻¹ in a direction opposite to the rotation direction, and the time of staying on it was measured to a maximum of 180 s. Those falling off of the rotating rod within 60 s were judged as having an inhibitory effect on the motor coordination and, with the number of cases as index, comparison was made with the reference compound (eperisone hydrochloride).
The mice were trained in advance to be able to stay on the rotating rod for more than 300 s, and those capable of staying on it for more than 250 s immediately before testing were used.
In a further series the test system is Male ddy mice. The series can be described thus: Acute toxicity test. Particulars: oral. The protocol:
as §1

The mark [4] stands for this setting: oral, rotating rod 30 min after administration, falling off within 60 s counted as positive, 95% confidence limit in brackets.

Structures can show the parent of a compound that is named as a salt.

`Cc1ccc(C(=O)C(C)Cn2ccnc2)cc1C` (centres unmarked) [Compound 14, 3-(1H-imidazol-1-yl)-2-methyl-1-(3,4-dimethylphenyl)-propan-1-one]: the ED50 in the series on Male Slc-ddy mice [1] was determined as 33 mg/kg. Besides, in the series with Male Slc-ddy mice [1] (mice), the “anti-strychnine effect compared with eperisone hydrochloride” value is on record as “stronger anti-strychnine effect than eperisone hydrochloride” and the “Anti-strychnine effect Effect” value is given as “◎”. In the series with Male Slc-ddy mice [2], the “anti-nicotinic effect compared with eperisone hydrochloride” value is on record as “stronger anti-nicotinic effect than eperisone hydrochloride”, the “Anti-nicotinic effect Effect” value is recorded as “◎” and the ED50 worked out at 32 mg/kg. The LD50 at 168 h in “Acute toxicity test” worked out at 209 mg/kg. The “Inhibitory effect on motor coordination Effect” value in the series with Male Slc-ddy mice [3] came out at 0. Moreover, the ED50 with Male Slc-ddy mice [3] (setting [4]) stood at 100 mg/kg. Besides, the “inhibitory effect on the motor coordination compared with eperisone hydrochloride” value with Male Slc-ddy mice [3] (oral) is given as “stronger inhibitory effect on the motor coordination than eperisone hydrochloride”.

`CCc1ccc(C2(C(C)Cn3ccnc3)OCCO2)cc1` (centres unmarked) [Compound 23]: in the series with Male Slc-ddy mice [1], the ED50 came to 155 mg/kg. Also, in the series on Male Slc-ddy mice [1] (mice), the “anti-strychnine effect compared with eperisone hydrochloride” value was “stronger anti-strychnine effect than eperisone hydrochloride” and the “Anti-strychnine effect Effect” value is “○”. In the series with Male Slc-ddy mice [2], the “anti-nicotinic effect compared with eperisone hydrochloride” value is on record as “stronger anti-nicotinic effect than eperisone hydrochloride”, the “Anti-nicotinic effect Effect” value is reported as “◎” and the ED50 worked out at 46 mg/kg. Moreover, the LD50 at 168 h in the series “Acute toxicity test” was 415 mg/kg. For the same molecule, the “Inhibitory effect on motor coordination Effect” value in the series on Male Slc-ddy mice [3] is listed as “◎”. Moreover, in the series with Male Slc-ddy mice [3] (setting [4]), the ED50 is 210 mg/kg. For the same molecule, in the series on Male Slc-ddy mice [3] (oral), the “inhibitory effect on the motor coordination compared with eperisone hydrochloride” value was “stronger inhibitory effect on the motor coordination than eperisone hydrochloride”.

As for `CCc1ccc(C(=O)C(C)CN2CCCCC2)cc1` (centres unmarked) [Eperisone hydrochloride, reference compound], in the series with Male Slc-ddy mice [1] (mice, oral, strychnine nitrate 1.5 mg/10 ml/kg s.c. after 30 min, Litchfield-Wilcoxon, 95% confidence limit in brackets), the “ED₅₀ values for the anti-strychnine effect” value is listed as “No effect detected”. In addition, the ED50 in the series with Male Slc-ddy mice [2] was found to be 140 mg/kg. In the series with Male ddy mice, the “minimum lethal dose relative to the minimum amount necessary for developing a pharmacological effect (safety margin)” value was “the minimum lethal dose is close to the minimum amount necessary for developing a pharmacological effect”. In addition, the LD50 at 168 h in the series “Acute toxicity test” came out at 303 mg/kg. The “ED₅₀ values for the inhibitory effect on the motor coordination” value in the series with Male Slc-ddy mice [3] (setting [4]) was “positive cases not in excess of 50%”.

In the case of `CCc1ccc(C(=O)C(C)Cn2ccnc2)cc1` (centres unmarked) [Hydrochloride of compound 2], the “LD₅₀ values (50% of lethal dose)” value with Male ddy mice (observation for 7 days, Litchfield-Wilcoxon, 95% confidence limit in brackets, 10080 min) was 225 mg/kg (182-278).

Source of the values: patent EP0423524A2, “Propiophenone derivatives and their preparation and pharmaceutical use” (MARUHO Co., Ltd., priority 1989, dated 1991).
